In one series the target is T1, Monoamine Oxidase MAO-B (Homo sapiens, UniProt P27338).
T1 construct: Eurofins 140120
In words: Eurofins panel 140120. The class given is biochemical. As to the method:
(§1) Radioligand binding to a panel of receptors was carried out by Eurofins on crude membrane preparations according to published procedures and by using appropriate reference standard (Eurofins, CVie 101 compound code PT #1207859, study #AB76416, quote #68407-1, for Cvie Therapeutics Limited, Taiwan (R.OC.) on Mar. 5, 2017). CVie 101 was tested at the concentration of 10 μM. No significant interaction was documented, except for Sodium Channel, site 2 from rat (cat #279510), where a significant response (≥50%) was noted (Table 7).

Another series has as its target T2, Progesterone PR-B (Homo sapiens, UniProt P06401).
T2 construct: Eurofins (contract assay) 299005
In words: Receptor binding 299005. How it is done: as §1

The target of the next series is T3, Estrogen ERβ (Homo sapiens, UniProt Q92731).
T3 construct: Eurofins (contract assay) 226050
T3 sequence (Q92731 whole entry): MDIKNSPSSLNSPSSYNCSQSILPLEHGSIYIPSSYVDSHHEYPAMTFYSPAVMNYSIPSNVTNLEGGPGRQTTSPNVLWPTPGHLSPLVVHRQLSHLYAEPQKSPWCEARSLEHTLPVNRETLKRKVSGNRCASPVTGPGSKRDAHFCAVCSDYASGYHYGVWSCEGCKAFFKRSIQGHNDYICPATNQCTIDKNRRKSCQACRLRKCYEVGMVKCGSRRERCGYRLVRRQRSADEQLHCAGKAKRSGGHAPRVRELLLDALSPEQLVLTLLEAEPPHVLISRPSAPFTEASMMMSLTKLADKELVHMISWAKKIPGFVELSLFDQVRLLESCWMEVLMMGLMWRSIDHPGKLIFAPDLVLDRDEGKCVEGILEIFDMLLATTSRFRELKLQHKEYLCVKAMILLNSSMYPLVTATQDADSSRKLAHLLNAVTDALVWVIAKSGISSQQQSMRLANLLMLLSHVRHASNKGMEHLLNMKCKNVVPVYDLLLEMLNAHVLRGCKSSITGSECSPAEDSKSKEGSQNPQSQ
Briefly: Receptor binding 226050. How it is done: as §1

In the next series the target is T4, SERCA2a (Canis lupus familiaris, UniProt O46674).
T4 construct: pre-incubated with 2 μg of microsomes; from tissue; host or cells: dog heart left ventricle, SR microsomes
T4 sequence (O46674 whole entry): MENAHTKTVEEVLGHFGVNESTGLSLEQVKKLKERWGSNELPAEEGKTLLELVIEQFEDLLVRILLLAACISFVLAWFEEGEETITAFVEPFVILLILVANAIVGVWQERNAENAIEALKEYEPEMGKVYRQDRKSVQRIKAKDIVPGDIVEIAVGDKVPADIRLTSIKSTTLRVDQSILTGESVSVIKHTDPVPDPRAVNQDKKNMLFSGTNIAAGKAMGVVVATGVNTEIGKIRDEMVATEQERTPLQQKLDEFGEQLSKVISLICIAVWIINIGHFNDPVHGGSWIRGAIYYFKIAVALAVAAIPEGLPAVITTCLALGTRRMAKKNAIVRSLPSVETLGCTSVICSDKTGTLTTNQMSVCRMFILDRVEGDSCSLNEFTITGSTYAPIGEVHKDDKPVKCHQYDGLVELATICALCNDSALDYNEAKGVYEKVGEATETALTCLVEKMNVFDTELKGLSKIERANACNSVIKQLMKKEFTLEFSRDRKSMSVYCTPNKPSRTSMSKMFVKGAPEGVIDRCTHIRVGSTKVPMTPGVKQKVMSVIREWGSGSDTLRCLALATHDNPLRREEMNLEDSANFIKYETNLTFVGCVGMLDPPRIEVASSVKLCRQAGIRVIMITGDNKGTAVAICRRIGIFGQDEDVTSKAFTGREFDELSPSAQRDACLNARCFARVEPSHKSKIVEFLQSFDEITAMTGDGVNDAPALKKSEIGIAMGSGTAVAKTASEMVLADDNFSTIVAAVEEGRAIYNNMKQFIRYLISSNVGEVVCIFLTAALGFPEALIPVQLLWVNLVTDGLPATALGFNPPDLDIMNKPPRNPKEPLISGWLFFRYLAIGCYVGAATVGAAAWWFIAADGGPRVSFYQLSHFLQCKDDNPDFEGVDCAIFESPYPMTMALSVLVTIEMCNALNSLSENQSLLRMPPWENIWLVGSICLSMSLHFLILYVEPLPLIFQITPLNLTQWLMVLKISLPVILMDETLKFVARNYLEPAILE
Briefly: SERCA2a ATPase activity in heart-derived SR microsomes from normal dog. The class given is biochemical. The conditions noted are these: for Vmax (SERCA2a ATPase activity): mean ± SD. How it is done:
Left ventricle tissues were dissected, homogenized in 4 volumes of 10 mM NaHCO3, pH 7, 1 mM PMSF, 10 μg/ml Aprotinin and Leupeptin and centrifuged at 12,000 g for 15 minutes, as published (Nediani C. et al. J Biol Chem. 1996; 271:19066-73). Supernatants were filtered and centrifuged at 100,000 g for 30 min. Contractile proteins were extracted by suspending the pellets with 0.6 M KCl, 30 mM Histidine, pH 7 and further centrifugation at 100,000 g for 30 min. Final pellets were reconstituted with 0.3 M Sucrose, 30 mM Histidine, pH 7.
SERCA2a activity was measured “in vitro” as ^32P-ATP hydrolysis at different Ca^2+ concentrations (100-4000 nM) in the absence and presence of the tested compounds, as described (Micheletti R. et al. Am J Card 2007; 99:24A-32A). Increasing concentrations of each compound (from 1 to 100 nM) were pre-incubated with 2 μg of microsomes for 5 min at 4° C. in 80 μl of a solution containing 100 mM KCl, 5 mM MgCl2, 1 μM A23187, 20 mM Tris, pH 7.5. Then, 20 μl of 5 mM Tris-ATP containing 50 nCi of ^32P-ATP (3-10 Ci/mmol, Perkin Elmer) were added. The ATP hydrolysis was continued for 15 min at 37° C. and the reaction was stopped by acidification with 100 μl of 20% v/v ice-cold perchloric acid. ^32P was separated by centrifugation with activated charcoal (Norit A, SERVA) and the radioactivity was measured. SERCA2a-dependent activity was identified as the portion of total hydrolytic activity inhibited by 10 μM cyclopiazonic acid (Seidler N W. et al. J Biol Chem. 1989; 264:17816-23).
Dose-response curves were fitted by using a sigmoidal curve fitting software and the maximal velocity (Vmax) activity and the Kd Ca^2+ were calculated (Synergy Software KaleidaGraph 3.6).

The target of another series is T5, Muscarinic M3 (Homo sapiens, UniProt P20309).
T5 construct: Eurofins (contract assay) 252810
T5 sequence (P20309 whole entry): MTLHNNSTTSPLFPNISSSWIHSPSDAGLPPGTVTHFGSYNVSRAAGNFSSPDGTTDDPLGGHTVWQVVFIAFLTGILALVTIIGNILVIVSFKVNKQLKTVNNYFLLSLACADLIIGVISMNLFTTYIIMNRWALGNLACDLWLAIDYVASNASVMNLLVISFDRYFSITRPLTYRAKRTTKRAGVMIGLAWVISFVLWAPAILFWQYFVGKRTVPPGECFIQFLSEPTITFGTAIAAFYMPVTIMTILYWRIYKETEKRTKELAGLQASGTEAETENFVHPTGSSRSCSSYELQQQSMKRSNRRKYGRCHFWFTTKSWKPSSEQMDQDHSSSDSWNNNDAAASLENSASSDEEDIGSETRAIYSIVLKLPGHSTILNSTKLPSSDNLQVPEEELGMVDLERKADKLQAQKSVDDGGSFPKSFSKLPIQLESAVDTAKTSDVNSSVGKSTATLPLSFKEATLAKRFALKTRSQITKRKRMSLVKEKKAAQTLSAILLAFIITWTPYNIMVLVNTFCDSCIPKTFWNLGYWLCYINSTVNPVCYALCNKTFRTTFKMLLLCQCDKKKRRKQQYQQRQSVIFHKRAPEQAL
In words: Receptor binding 252810. As to the method:
as §1

For a further series, the target named is T6, Monoamine Oxidase MAO-A (Homo sapiens, UniProt P21397).
T6 construct: Eurofins 140010
T6 sequence (P21397 whole entry): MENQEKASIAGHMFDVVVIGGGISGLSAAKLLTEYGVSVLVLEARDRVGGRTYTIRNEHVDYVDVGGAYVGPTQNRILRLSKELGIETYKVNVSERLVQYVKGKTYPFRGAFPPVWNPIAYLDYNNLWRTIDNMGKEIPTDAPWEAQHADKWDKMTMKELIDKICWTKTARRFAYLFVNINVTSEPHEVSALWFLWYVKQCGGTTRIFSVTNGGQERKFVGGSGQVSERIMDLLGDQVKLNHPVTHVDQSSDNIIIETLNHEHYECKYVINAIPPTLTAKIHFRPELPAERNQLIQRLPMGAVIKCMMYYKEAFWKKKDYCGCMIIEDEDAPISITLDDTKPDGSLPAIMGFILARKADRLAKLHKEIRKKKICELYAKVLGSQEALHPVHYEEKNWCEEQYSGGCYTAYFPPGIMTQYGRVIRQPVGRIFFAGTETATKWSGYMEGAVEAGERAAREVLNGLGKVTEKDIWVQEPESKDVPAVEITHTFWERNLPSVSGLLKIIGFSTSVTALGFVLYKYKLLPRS
Briefly: Eurofins panel 140010. The class given is biochemical. How it is done: as §1

For another series, the target named is T7, Adrenergic α2A (Homo sapiens, UniProt P08913).
T7 construct: Eurofins 203630; host or cells: crude membrane preparation
Briefly: Receptor binding 203630. How it is done:
as §1

Series [1] in a line: Acute toxicity (LD50) in mouse. The note with it: Albino Swiss CD-1, in vivo, single administration. How it is done:
194. Acute toxicity has been determined in the mouse (Albino Swiss CD-1, body weight 30 g). Mice were orally treated, or intravenously injected, with single administration of increasing doses of the test substance to identify the dose causing 50% mortality. Mortality occurred within 30 min after the administration and survival after 24 h. The acute toxicity (LD50) was then assessed.
The acute toxicity of the tested compound CVie 101 has been determined in the mouse (Albino Swiss CD-1, body weight 30 g). CVie 101 has been orally administered or intravenously injected at increasing doses to identify the dose causing 50% mortality. Mortality occurred within 30 min after the administration and survival after 24 h.

In the next series the target is T8, Opiate μ(OP3, MOP) (Homo sapiens, UniProt P35372).
T8 construct: Eurofins (contract assay) 260410
T8 sequence (P35372 whole entry): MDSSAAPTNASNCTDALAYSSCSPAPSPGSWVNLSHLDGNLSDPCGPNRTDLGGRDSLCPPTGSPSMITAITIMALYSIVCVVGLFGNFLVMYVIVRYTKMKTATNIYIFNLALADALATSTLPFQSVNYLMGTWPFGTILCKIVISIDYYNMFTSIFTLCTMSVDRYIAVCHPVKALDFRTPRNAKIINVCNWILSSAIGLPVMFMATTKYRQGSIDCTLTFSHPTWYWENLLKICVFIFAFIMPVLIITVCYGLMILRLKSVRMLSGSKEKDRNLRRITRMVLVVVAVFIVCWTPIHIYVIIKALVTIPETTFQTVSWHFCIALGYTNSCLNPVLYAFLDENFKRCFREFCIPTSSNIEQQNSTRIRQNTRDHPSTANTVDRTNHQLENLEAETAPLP
Briefly: Receptor binding 260410. As to the method: as §1

The next series addresses T9, Dopamine D3 (Homo sapiens, UniProt P35462).
T9 construct: Eurofins 219800; host or cells: crude membrane preparation
Briefly: Receptor binding 219800. As to the method: as §1

The next series deals with Phorbol Ester. Briefly: Receptor binding 264500. On the set-up: species or system mouse. The conditions noted are these: 10 μM. How it is done:
as §1

For series [2], the system named is Serotonin (5-Hydroxytryptamine) 5-HT1, non selective. Briefly: Receptor binding 271010. The conditions noted are these: 10 μM. Further details: species or system rat. As to the method: as §1
The next series concerns the target T10, Adrenergic β1 (Homo sapiens, UniProt P08588).
T10 construct: Eurofins 204010; host or cells: crude membrane preparation
In words: Receptor binding 204010. As to the method: as §1

1 compound from patent US11730746B2, “17beta-heterocyclyl-digitalis like compounds for the treatment of heart failure” (priority 2018, dated 2023) can be followed below.

Marks after values point to notes of the source that are not given here.

T2 sequence (P06401 whole entry): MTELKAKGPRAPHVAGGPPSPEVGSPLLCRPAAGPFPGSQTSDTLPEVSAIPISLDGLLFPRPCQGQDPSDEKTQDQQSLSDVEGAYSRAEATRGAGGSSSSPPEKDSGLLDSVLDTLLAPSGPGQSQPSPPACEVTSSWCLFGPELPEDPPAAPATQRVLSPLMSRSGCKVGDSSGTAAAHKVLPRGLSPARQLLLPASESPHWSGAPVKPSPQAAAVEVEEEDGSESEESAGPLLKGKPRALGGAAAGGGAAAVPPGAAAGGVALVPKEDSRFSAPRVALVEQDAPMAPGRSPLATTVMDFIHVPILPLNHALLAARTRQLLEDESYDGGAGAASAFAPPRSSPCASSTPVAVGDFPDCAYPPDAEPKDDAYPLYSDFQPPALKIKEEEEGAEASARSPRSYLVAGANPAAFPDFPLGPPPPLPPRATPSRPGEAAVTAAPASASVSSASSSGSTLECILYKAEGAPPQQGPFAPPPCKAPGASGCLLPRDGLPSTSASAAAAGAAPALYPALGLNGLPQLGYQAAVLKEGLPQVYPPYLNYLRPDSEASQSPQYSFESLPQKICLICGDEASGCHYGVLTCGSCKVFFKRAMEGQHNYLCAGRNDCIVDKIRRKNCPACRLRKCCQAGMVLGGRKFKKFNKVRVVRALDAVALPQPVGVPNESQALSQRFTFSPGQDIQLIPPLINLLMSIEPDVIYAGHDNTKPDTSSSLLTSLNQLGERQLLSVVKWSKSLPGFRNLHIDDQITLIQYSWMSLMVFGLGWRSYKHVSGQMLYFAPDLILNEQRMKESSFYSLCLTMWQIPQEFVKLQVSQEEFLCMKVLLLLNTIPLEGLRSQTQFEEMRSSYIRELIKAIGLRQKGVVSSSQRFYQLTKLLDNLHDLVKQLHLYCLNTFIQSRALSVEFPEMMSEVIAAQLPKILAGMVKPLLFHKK
T9 sequence (P35462 whole entry): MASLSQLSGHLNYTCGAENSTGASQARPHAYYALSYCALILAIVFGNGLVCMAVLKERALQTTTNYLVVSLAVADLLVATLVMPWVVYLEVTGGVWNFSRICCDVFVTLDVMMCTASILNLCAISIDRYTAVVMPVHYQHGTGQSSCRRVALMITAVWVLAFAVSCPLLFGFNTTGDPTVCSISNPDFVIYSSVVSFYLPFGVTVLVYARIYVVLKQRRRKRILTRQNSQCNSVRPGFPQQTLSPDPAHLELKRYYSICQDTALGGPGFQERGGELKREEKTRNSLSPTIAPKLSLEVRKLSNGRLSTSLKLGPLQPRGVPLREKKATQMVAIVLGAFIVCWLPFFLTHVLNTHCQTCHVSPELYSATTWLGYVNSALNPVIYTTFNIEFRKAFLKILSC
T10 sequence (P08588 whole entry): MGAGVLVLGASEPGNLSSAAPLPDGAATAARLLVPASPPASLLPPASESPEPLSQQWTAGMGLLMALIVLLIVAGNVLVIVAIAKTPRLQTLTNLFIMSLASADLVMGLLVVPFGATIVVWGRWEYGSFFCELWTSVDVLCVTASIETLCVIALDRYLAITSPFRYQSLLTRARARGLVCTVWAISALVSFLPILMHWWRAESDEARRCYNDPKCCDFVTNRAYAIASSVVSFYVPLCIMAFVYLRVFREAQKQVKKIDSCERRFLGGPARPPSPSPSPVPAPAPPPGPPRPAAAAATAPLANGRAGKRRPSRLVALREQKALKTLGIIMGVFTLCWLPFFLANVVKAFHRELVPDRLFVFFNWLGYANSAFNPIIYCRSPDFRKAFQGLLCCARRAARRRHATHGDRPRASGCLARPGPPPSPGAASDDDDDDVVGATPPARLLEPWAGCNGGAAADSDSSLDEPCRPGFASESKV

As to `C[C@]12CC[C@H](O)C[C@H]1CCC1C2CC[C@]2(C)[C@@H](c3c[nH]cn3)CC[C@]12O` (stereo partly drawn) [CVie 101, 3β-hydroxy-5β-10β-methyl-13β-methyl-14β-hydroxy-17β-(imidazol-4-yl)androstane], the inhibition at 10 µM against Monoamine Oxidase MAO-B was 4%; at Progesterone PR-B, 10%; on Estrogen ERβ it was 17%; on Muscarinic M3, 15%; at Monoamine Oxidase MAO-A, 4%; at Adrenergic α2A, -7%. Besides, the inhibition at 10 µM was 19% on Opiate μ(OP3, MOP); 7% at Dopamine D3; -4% at Adrenergic β1. In addition, the “% increase vs Control (SERCA2a Vmax)” value at SERCA2a (compound 10 nM) came out at 15%*; at SERCA2a (compound 100 nM) it was 19%*. Also, the “Vmax (SERCA2a ATPase activity)” value on SERCA2a (compound 10 nM) is 2.737 ± 0.336 (n = 7) μmol/min/mg prot; at SERCA2a (compound 100 nM) it was 2.832 ± 0.198 (n = 7) μmol/min/mg prot. Moreover, the 50% lethal dose (LD50) at 24 h in series [1] (iv) was 20 mg/kg; in series [1] (oral, os), 350 mg/kg. The entries for the “% inhib” value (in the series with Phorbol Ester; in series [2]) were −4% and 7%, respectively.

What is called inhibition is the relative decrease from the control value, in per cent. Usually LD50 stands for the dose expected to kill half of the subjects tested.
